Experiment [1] has as its system IFNGR1 protein. The conditions noted are these: previous studies (ref 27), cited from earlier work.
For experiment [2], the system named is DMBA-induced mammary tumors. The settings on record: single oral dose prior to carcinogen, rats; cited from earlier work.
The test system of experiment [3] is MHC-I complex. Briefly: Flow cytometry of cell surface MHC-I expression (FITC-conjugated HLA-ABC antibody). Format: cell-based, human. Here is the method:
Induced expression of the MHC-I complex is a well-established and important down-stream target of IFNγ-mediated signal transduction. To examine further the possible synergistic effects of DIM on a significant metabolic product of IFNγ signaling, we tested the effects of co-treatment with DIM on IFNγ induced expression of MHC-I complex in MCF-7 cells.
Flow cytometry analysis of cell surface MHC-I expression was conducted using FITC-conjugated HLA-ABC antibody. In an initial control experiment, cultured MCF-7 cells were pre-treated with 30 μM DIM for 48 hours and then with or without 10 ng/mL IFNγ for another 16 hours. […] In a subsequent experiment in which cells were treated with a range of IFNγ concentrations and analyzed with the anti-MHC-I antibody, a strong signal indicative of IFNγ-induced MHC-I expression was detectable at 0.1 ng/mL and appeared to plateau at 10 ng/mL. In cells treated with vehicle control only, MHC-I expression was not detected in greater than 99% of cells.
Exposure to DIM of cells treated with 10 ng/mL of IFNγ, about 95% of which expressed MHC-I, produced a strong time dependent increase in MFV from 76.04 to 131.41. […] As expected, addition of an IFNγ blocking antibody into the medium before the treatments abrogated the inducing effects of co-treatments of IFNγ and DIM on MHC-I expression, confirming the requirement of the cytokine for the observed effects.
For orientation: Flow cytometry measures light scatter and fluorescence of single cells or particles in a stream.

Experiment [4] has as its system HLA-A, HLA-B, HLA-C, β-microtubulin, TAP1 and TAP2. As to the kind of experiment: RT-PCR of MHC-I components and transporters in MCF-7 cells. Format: cell-based, human. The text has this: RT-PCR was used to examine the expression of the four major components of human MHC-I, including HLA-A, HLA-B, HLA-C, and β-microtubulin, as well as two important associated transporters, TAP1 and TAP2. […] As expected, the expressions of these genes were increased 2-8 fold by treatment with IFNγ.

Experiment [5] relates to OAS-Luc reporter (promoter and 5′-flanking region of p69-OAS). As to the kind of experiment: OAS-Luc luciferase reporter in transiently transfected MCF-7 cells. Format: cell-based, human. The conditions noted are these: 24 h treatment. Here is the method: (§1) In a further experiment to examine whether the inducing effects of DIM are at the transcriptional level, the effect of DIM on activities of two luciferase reporter constructs, OAS-Luc (12) and 4GAS-Luc (13) was examined. OAS-Luc contains the promoter and 5′-flanking region (−972) of p69-OAS and GAS-Luc contains four repeats of the consensus GAS element. MCF-7 cells transiently transfected with these reporter constructs were treated with IFNγ, DIM, or a combination of both for 24 h. […] IFNγ induced transcriptional activity of this reporter in a concentration dependent manner to a maximum of about 1.8 fold, which is less than the response of the endogenous gene of about 5.0 fold. In marked contrast to the maximum effects of combined treatments of the inducers on endogenous gene expression (nearly 12-fold increase compared to vehicle treated cells), the reporter gene construct responded with less than a 3-fold increase over the controls.

In experiment [6] the test system is 4GAS-Luc reporter (four repeats of the consensus GAS element). Briefly: 4GAS-Luc luciferase reporter in transiently transfected MCF-7 cells. Format: cell-based, human. The conditions noted are these: DIM 50 μM, IFNγ concentration dependent, maximum. Here is the method: as §1
Thus, treatment with DIM (50 μM) by itself again produced a 2 to 3-fold increase in activity of this reporter. IFNγ treatments, however, produced a robust concentration dependent increase in reporter activity to approximately 40-fold induction compared to vehicle treated controls. […]
On the technique in general: In a reporter assay the amount or activity of a reporter protein is the signal.

In experiment [7] the test system is MCF-7 cells. As to the kind of experiment: Cell proliferation over a 4-day treatment period. Format: cell-based, human. Here is the method:
Functional consequences of the synergistic effects of DIM and IFNγ on gene expression were examined at the level of proliferation rates. Cell proliferation was measured over a 4-day treatment period with treatments with DIM, IFNγ, or both substances, and compared to a DMSO control. With heat-treated serum, IFNγ alone reduced cell proliferation by as much as 70% compared to controls. DIM treatments reduced proliferation by as much as 60%. […] These effects were accompanied by morphological changes characteristic of apoptosis.

Experiment [8] relates to MHC-II. As to the kind of experiment: MHC-II expression in MCF-7 cells. Type of experiment: cell-based, human. An excerpt:
In an analogous further experiment, we observed no effect of DIM or IFNγ on MHC-II expression in the MCF-7 cells.

Experiment [9] has as its system GAS element. As to the kind of experiment: Electrophoretic gel mobility shift assay, STAT1 binding to GAS element. Type of experiment: cell-based, human. The settings on record: DIM pretreatment for various times, IFNγ 30 min. Here is the method:
An electrophoretic gel mobility shift assay was used to verify that the phosphorylated STAT1 was effectively activated to a dimer that could bind to the GAS element. The ^32P-labeled DNA probe containing a GAS sequence was incubated with nuclear extracts from cells pretreated with DIM for various times as indicated, and with IFNγ for 30 min. […] When samples were incubated with an antibody specific to STAT1, the band was super-shifted, confirming the identity of the protein binding to the labeled GAS probe.

Experiment [10] relates to MCF-7 cells. As to the kind of experiment: Flow cytometry of cell cycling (G1 phase). The settings on record: up to 3 days; control approximately 50% in G1. Format: cell-based, human. The text has this:
Flow cytometry was used to determine the effects of DIM and IFNγ on cell cycling. […] In control groups approximately 50% of the cells were in G1. Treatment with IFNγ alone caused a small progressive increase in G1 blocked cells of up to 10% above the DMSO control, after 3 days.

Regarding `OCc1c[nH]c2ccccc12` [I3C, indole-3-carbinol], the “IFNGR1 receptor expression increase” value in [1] (24 hours of treatment with I3C) is given as “about 3 fold”. Moreover, in experiment [1] (I3C), the “Maximum level of IFNGR1 protein induction” value is given as “about 7 fold” and the “Time at which maximum IFNGR1 protein induction was reached” value was “about 48 hours”. The “Reduction of incidence and multiplicity of DMBA-induced mammary tumors” value in experiment [2] was 70-80%.

As to “IFNγ: Type II IFN, interferon-γ or the immune interferon, a cytokine”, the “Percentage of MHC-I positive cells” value in experiment [3] (0.1 ng/mL IFNγ, without or with 30 μM DIM pretreatment for 48 h) is 8.11%. In addition, the “MHC-I expression/cell (MFV)” value in experiment [3] (10 ng/mL IFNγ, without or with exposure to DIM) stood at 76.04. For the same compound, in experiment [3] (10 ng/mL of IFNγ), the “Cells which expressed MHC-I” value was “about 95%”. Moreover, in [3] (MCF-7 cells), the “IFNγ concentration at which MHC-I signal appeared to plateau” value was found to be 10 ng/mL and the “IFNγ concentration at which induced MHC-I expression was detectable” value is 0.1 ng/mL. The “Expression levels of the six genes (MHC-I components, TAP1, TAP2) above vehicle/background” value in experiment [4] is recorded as 2-8 fold. For the same compound, in experiment [5], the “Maximum induction of OAS-Luc reporter” value is “about 1.8 fold”. Besides, the “Induction of 4GAS-Luc reporter activity compared to vehicle treated controls” value in experiment [6] is given as “approximately 40 fold”. Also, in experiment [7] (4-day treatment, heat-treated serum), the “Reduction of cell proliferation compared to controls” value is reported as not above 70%. The “Effect on proliferation of cells grown in unheated serum” value in experiment [7] (unheated serum) is on record as “no significant effect”. Moreover, the “Effect on MHC-II expression” value in [8] is recorded as “no effect”. The “Band-shift of 32P-labeled GAS probe with nuclear extracts” value in [9] was “produced a band-shift”. Further, the “Increase in G1 blocked cells above the DMSO control” value in [10] is “up to 10%”.

Source of the values: US20060100264A1, “3,3'-Diindolylmethane immune activating compositions” (priority 2004, published 2006).
